Common to all, as to assay type: cell-based
Assay [1] concerns EpiSkin-LM 3-dimensional in-vitro human skin model. Description: Gene expression test (DNA microarray, mRNA) on the EpiSkin-LM reconstructed 3D skin model. The protocol:
Gene expression tests were conducted on EpiSkin-LM™, a commercially available 3-dimensional in-vitro human skin model composed of normal human skin cells in a collagen matrix. Test samples contained either 0.5% or 1.0% of highly sustainable, high-purity MVL by weight in a phosphate-buffered saline (PBS) solution. Negative control samples contained PBS only.
Reconstructed 3D skin epidermal models (EpiSkin-LM™) were pre-incubated with 5 mL of maintenance medium for 24 hours per manufacturer instruction. 2 mL of the test samples or negative controls were applied on the top of the epidermis. The treated models were incubated for 24 hours. After incubation, the models were rinsed with PBS, then treated again with 2 mL test samples or the negative control and incubated an additional 24 hours.
After the second incubation, mRNA was extracted from the models by miRNeasy® Mini Kit (QIAGEN). mRNA expression level in the model was measured by a Genopal® DNA microarray chip. Modulation of gene expression level was expressed as the ratio of mRNA transcripts in the test-sample treated models to mRNA transcripts in the negative control models. Positive numbers indicated an increase in gene expression, and negative numbers indicated a decrease in gene expression relative to the negative control.

Assay [2] relates to normal human epidermal keratinocytes cells. Description: Cortisol production test (conversion of cortisone to cortisol, Alpha LISA). To be noted: FIG. 13. The protocol: Impact of MVL on metabolism, specifically cortisol production, was conducted on keratinocytes. Generally, 11β-HSD1 (Hydroxysteroid Dehydrogenase Type 1) converts costisone to cortisol, which then induces stress response. Impact of MVL on conversion of cortisone to cortisol was evaluated. Cortisol production tests were conducted on normal human epidermal keratinocytes cells. […] Negative control samples contained PBS only. Cortisol production was subsequently measured via the Alpha LISA system.
In general terms: Bead proximity is the source of the signal in Alpha formats.

In assay [3] the test system is normal human epidermal keratinocytes (NHEKs) cells. The experiment in a line: Hyaluronic acid level in medium (ELISA, normalized to protein level). To be noted: FIG. 15; for increase in hyaluronic acid levels: 48 hours, p<0.05. On the procedure: Impact of MVL on hyaluronic acid, was conducted on keratinocytes. Hyaluronic acid is a crucial component of the skin. Impact of MVL on conversion of hyaluronic acid was evaluated. Hyaluronic acid tests were conducted on normal human epidermal keratinocytes (NHEKs) cells. Test samples contained 0-0.25% of highly sustainable, high-purity MVL by weight in a phosphate-buffered saline (PBS) solution. Negative control samples contained PBS only. Hyaluronic acid level in the medium was subsequently measured at 24 hours and 48 hours via ELISA and normalized to the protein level in the NHEK cells.
For orientation: In an ELISA, binding on a coated surface is turned into a signal by an enzyme label.

Setting [4] is: compositions containing 0.1 to 1.0 weight percent, human epithelial cells.

On to `C[C@@]1(O)CCOC(=O)C1` [MVL, R-mevalonolactone], for which the “decrease in gene expression level relative to negative control (MMP1, MMP2, MMP3, MMP7, MMP9, NFATC1, IL1A, IL1B, TNFA, SELE, SELL, EDN1, EDN2, EDN3, PTGS2 (COX2), POMC)” value in assay [1] (1.0% by weight in PBS, two 24 h treatments, genes of extracellular matrix degradation, inflammation, skin pigmentation (FIGS. 6-8)) is listed as “at least 10%”. Moreover, in assay [1] (setting [4]), the “decrease in expression of genes related to ECM degradation, inflammation and pigmentation” value is “at least 10%”; the “increase in expression of genes related to epithelial turnover, hyaluronic acid synthesis, barrier function and anti-aging elasticity” value is “at least 10%”. The “conversion of cortisone to cortisol” value in assay [2] (0.125-0.5% by weight, higher concentrations give larger decline in cortisol levels) is “potently modulates”. In addition, the “reduction of cortisol production” value in assay [2] (0.5% concentration in PBS with cortisone) is on record as “over 15%”. The “increase in hyaluronic acid levels” value in assay [3] (0.13% concentration) is listed as “over 5%”. Further, in assay [3] (0.13-0.25% by weight, higher concentrations give higher hyaluronic acid levels), the hyaluronic acid levels entry is listed as “potently modulates”. The “increase in hyaluronic acid levels” value in assay [3] (0.25% concentration) was “over 5%”.

(Values after patent publication US12226379B2, “Highly sustainable compositions for modulation of gene expression in human skin, and methods of production thereof” (Visolis Technologies, Inc., priority 2022, dated 2025).)
